From patent US20260216350A1 (UNIVERSITY OF NOTRE DAME DU LAC, priority 2023, published 2026)

Tests used:
insulin receptor = insulin receptor (Homo sapiens, UniProt P06213); details: cited from earlier work
STZ diabetic mice [1] = test: Long term blood glucose control study (serial dosing); assay type: in vivo, mouse
Description: (§1) STZ Mouse Model. […] Specifics of these studies are detailed here:
Long term blood glucose control study. Healthy mice were first weighed individually and injected STZ following the above protocol. […] Mice were fed after treatment injection and brought back to their cage on Day 0. […] For all other groups, 48 h post treatment injection, mice were fasted for 5 h to adjust for time since last eating, followed with BGL measurement. The same process was repeated at 96 h following treatment injection. After measurement, mice were weighed individually. Mice were then re-dosed with the same formula every 5 days, collecting BGL at 48 h and 96 h following treatment with a 5 h fast; the process was repeated for one month.

[2] = system: STZ-induced diabetic mice; test: Multi-day blood glucose control study; assay type: in vivo, mouse
Description: as §1
Multi-Day Blood Glucose Control Study. […] BGL was then monitored for an additional 3 h following IPGTT. Mice were fasted during the entire IPGTT period with free access to water. Mice were fed after IPGTT. At 48 h post treatment, mice were fasted for 5 h followed by an IPGTT challenge for 3 h. Mice were then fed at the end of IPGTT. The IPGTT challenges were repeated on Day 4 and Day 6. Area under the curve (AUC) for each IPGTT cycle was calculated using the trapezoidal rule and statistically analyzed using GraphPad Prism v 9.0.

[3] = in vivo; cited from earlier work
[4] = system: STZ-induced diabetic mouse model; test: Determination of functional formulation and dose in STZ mice; details: unmodified insulin 0.17 mg/kg; complexes 0.17 or 3.5 mg/kg Insulin-DiPBA
Description: (§2) STZ Mouse Model. A chemically induce diabetes mouse model were established in male C57BL6/J mice (8 weeks, 25 g, Jackson Laboratory) using streptozotocin (STZ), according to common protocols. Mice were fasted for 4 h prior to injection with STZ at 150 mg/kg i.p., dissolved in pH 4.5 citrate buffer. Treated mice were fasted for an additional 0.5 h and were then supplied with food and water as normal. Treated mice were allowed to develop diabetes for 7 d, and diabetes was verified using handheld blood glucose meters (CVS), targeting unfasted blood glucose level (BGL) above 600 mg/dL.
Mice were challenged with three intraperitoneal glucose tolerance tests (IPGTT).

STZ diabetic mice [5] = test: In vivo activity verification in overnight-fasted STZ diabetic mice; design: species or system mouse; details: 0.1 mg/kg s.c.
Description: as §2
In Vivo Activity Verification. STZ induced diabetic mice were fasted for 8 h on the eighth day following induction, and mice with BGL>350 mg/dL in their overnight fasted state were randomly divided into groups (n=4/group). […] BGLs for each group were continuously monitored for 6 h after treatment. Mice were fasted during the entire experiment.

Sequence of insulin receptor (P06213 28-758 limits assumed, species assumed): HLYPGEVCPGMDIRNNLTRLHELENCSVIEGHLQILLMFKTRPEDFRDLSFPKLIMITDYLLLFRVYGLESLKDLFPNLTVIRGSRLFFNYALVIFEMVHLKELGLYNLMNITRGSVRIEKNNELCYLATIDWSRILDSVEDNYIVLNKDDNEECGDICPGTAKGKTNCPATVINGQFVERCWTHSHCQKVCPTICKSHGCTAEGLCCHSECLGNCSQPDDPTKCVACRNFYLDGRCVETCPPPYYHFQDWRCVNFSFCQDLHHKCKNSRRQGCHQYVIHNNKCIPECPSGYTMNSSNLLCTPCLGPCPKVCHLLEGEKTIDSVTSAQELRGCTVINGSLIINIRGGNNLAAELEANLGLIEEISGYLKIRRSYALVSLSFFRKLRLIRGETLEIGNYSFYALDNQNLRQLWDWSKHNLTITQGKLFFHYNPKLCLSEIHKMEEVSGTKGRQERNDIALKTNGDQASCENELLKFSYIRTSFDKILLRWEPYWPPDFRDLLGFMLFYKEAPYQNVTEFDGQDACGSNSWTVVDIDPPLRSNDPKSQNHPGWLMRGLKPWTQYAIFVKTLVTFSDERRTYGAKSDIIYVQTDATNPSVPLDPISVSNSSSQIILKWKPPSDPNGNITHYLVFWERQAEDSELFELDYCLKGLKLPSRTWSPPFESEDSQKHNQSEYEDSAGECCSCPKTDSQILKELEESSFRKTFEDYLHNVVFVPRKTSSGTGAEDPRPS
Sequence of insulin receptor (P06213 763-1382 partner limits assumed, species assumed): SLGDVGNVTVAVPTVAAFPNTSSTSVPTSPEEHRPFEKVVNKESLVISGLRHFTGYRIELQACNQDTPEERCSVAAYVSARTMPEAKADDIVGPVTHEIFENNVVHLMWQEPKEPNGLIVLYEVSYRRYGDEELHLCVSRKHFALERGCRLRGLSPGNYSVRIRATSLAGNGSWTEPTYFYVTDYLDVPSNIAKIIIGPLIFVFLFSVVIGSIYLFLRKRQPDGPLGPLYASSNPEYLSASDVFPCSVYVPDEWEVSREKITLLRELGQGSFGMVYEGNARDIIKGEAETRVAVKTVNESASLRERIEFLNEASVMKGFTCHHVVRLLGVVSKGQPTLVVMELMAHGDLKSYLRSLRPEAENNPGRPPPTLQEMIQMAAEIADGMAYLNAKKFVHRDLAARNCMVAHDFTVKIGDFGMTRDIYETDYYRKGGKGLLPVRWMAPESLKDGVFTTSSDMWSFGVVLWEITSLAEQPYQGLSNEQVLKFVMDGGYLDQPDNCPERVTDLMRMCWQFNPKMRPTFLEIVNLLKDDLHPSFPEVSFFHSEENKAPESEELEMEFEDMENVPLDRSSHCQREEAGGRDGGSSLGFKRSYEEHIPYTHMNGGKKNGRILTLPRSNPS

In the case of Insulin Detemir, the “insulin receptor binding affinity relative to unmodified insulin” value (insulin receptor) is given as ~ 25%, the “blood glucose throughout 5 weeks of repeat dosing” value (STZ diabetic mice [1]; complexes every 5 d, 10.4 mg/kg, Insulin Detemir daily 1 IU/kg, 3 h fast) is given as “did not provide sustained blood glucose correction” and the “body weight reduction from pre-STZ levels” value (STZ diabetic mice [1]; daily dosing) is given as ~ 20%. The “blood glucose control with daily administration” value ([2]; 1 IU/kg daily) was “did not sustain blood glucose control when this was not combined with overnight fasting” and the “blood glucose level after 3 h, day 0 challenge” value ([2]; overnight-fasted, complexes 10.4 mg/kg, Insulin Detemir 1 IU/kg) was 71 mg/dL.
In the case of Insulin Glargine, the duration of action [3] is given as 24 to 36 h.
In the case of “Insulin: recombinant human insulin, unmodified”, the “BGL correction over three IPGTT cycles” value [4] was “failed during the first IPGTT cycle” and the “time after which blood glucose increased” value (STZ diabetic mice [5]) was ~ 120 min.
